# From patent US11291655B2, “RAD51 inhibitors” (Cyteir Therapeutics, Inc., priority 2017, dated 2022)
# pEC50: −log10 of the molar value.
# System: Daudi Cell Culture
# Assay: Compound primary screening in Daudi cell culture
# Assay type: cell-based
# Conditions: Homo sapiens, 168 h; Daudi cells, 1250 cells per well, reads on Day 7
# In short: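 Daudi cells seeded at 1250 cells per well in 130 ul medium at 37° C. and treated with serially diluted compounds added from a media master plate; read on Day 7.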
row,pEC50,Structure (SMILES)
1,> 5.30,CC(=O)Nc1ccc(-c2cnc(-c3ccc(NC(=O)OCC(C)C)cc3)s2)c(S(=O)(=O)NC(C)(C)C)c1 [Compound G1]
2,< 5.00,CC(C)NC(=S)Nc1ccc(-c2ncc(-c3ccc(NC(=O)NCc4nccs4)cc3S(=O)(=O)NC(C)(C)C)s2)cc1 [Compound M6]
3,> 6.00,COC(=O)Nc1ccc(-c2cnc(-c3ccc(NC(=O)OC(C)C)cc3)s2)c(S(=O)(=O)NC(C)(C)C)c1 [Compound H7]
4,< 5.00,"CC(C)OC(=O)Nc1ccc(-c2ncc(-c3ccc(N4CC(c5ccccc5)OC4=O)cc3S(=O)(=O)NC(C)(C)C)s2)cc1 (stereo not shown) [Compound J29, isopropyl N-[4-[5-[2-(tert-butylsulfamoyl)-4-(2-oxo-5-phenyl-oxazolidin-3-yl)-phenyl]thiazol-2-yl]phenyl]carbamate]"
5,> 5.00,COC(=O)NCc1ccc(-c2cnc(-c3ccc(NC(=O)OC(C)C)cc3)s2)c(S(=O)(=O)NC(C)(C)C)c1 [Compound P7]
6,< 5.00,CC(C)NC(=O)Nc1ccc(-c2ncc(-c3ccc(NS(C)(=O)=O)cc3S(=O)(=O)NC(C)(C)C)s2)cc1 [Compound J15]
7,> 6.00,CC(C)OC(=O)Nc1ccc(-c2ncc(-c3ccc(NC(=O)OC(C)C)cc3S(=O)(=O)NC(C)(C)C)s2)cc1 [Compound H8]
8,> 5.30,CC(C)OC(=O)Nc1ccc(-c2ncc(-c3ccc(CNC(=O)C(C)C)cc3S(=O)(=O)NC(C)(C)C)s2)cc1 [Compound P2]
9,> 5.00,CC(C)NC(=S)Nc1ccc(-c2ncc(-c3ccc(NC(=O)NCc4cccnc4)cc3S(=O)(=O)NC(C)(C)C)s2)cc1 [Compound M3]
10,> 5.00,CC(C)NC(=S)Nc1ccc(-c2ncc(-c3ccc(NC(=O)OC(C)c4ccccc4)cc3S(=O)(=O)NC(C)(C)C)s2)cc1 (stereo not shown) [Compound M8]
11,< 5.00,CC(C)OC(=O)Nc1ccc(-c2ncc(-c3ccc(N4CCN(Cc5ccccc5)C4=O)cc3S(=O)(=O)NC(C)(C)C)s2)cc1 [Compound J21]
12,> 5.30,CC(C)OC(=O)Nc1ccc(-c2ncc(-c3ccc(CNC(=O)Cc4ccncc4)cc3S(=O)(=O)NC(C)(C)C)s2)cc1 [Compound O5]
13,> 5.30,CC(C)OC(=O)Nc1ccc(-c2ncc(-c3ccc(N4CCCC4=O)cc3S(=O)(=O)NC(C)(C)C)s2)cc1 [Compound J4]
14,< 5.00,CC(C)OC(=O)Nc1ccc(-c2ncc(-c3ccc(CNC(=O)Cc4cccnc4)cc3S(=O)(=O)NC(C)(C)C)s2)cc1 [Compound O6]
15,> 6.00,Cc1cc(NC(=O)OC(C)C)ccc1-c1ncc(-c2ccc(NC(=O)OC(C)C)cc2S(=O)(=O)NC(C)(C)C)s1 [Compound R1]
16,> 6.00,COc1cc(-c2ncc(-c3ccc(NC(=O)OCc4ccccc4)cc3S(=O)(=O)NC(C)(C)C)s2)ccc1NC(=O)OC(C)C [Compound R7]
17,> 5.30,"CCNc1ccc(-c2cnc(-c3ccc(NC(=O)OC(C)C)cc3)s2)c(S(=O)(=O)NC(C)(C)C)c1 [Compound I1, isopropyl N-[4-[5-[2-(tert-butylsulfamoyl)-4-(ethylamino)phenyl]thiazol-2-yl]phenyl]carbamate]"
18,> 5.00,CCC(=O)NCc1ccc(-c2cnc(-c3ccc(NC(=O)OC(C)C)cc3)s2)c(S(=O)(=O)NC(C)(C)C)c1 [Compound P1]
19,< 5.00,CC(C)OC(=O)Nc1ccc(-c2ncc(-c3ccc(CNC(=O)c4ccccc4)cc3S(=O)(=O)NC(C)(C)C)s2)cc1 [Compound P4]

# Second part, the molecule before the results:
row,Structure (SMILES),pEC50
1,"CC(O)CNc1ccc(-c2cnc(-c3ccc(NC(=O)OC(C)C)cc3)s2)c(S(=O)(=O)NC(C)(C)C)c1 (stereo not shown) [Compound J25, isopropyl N-[4-[5-[2-(tert-butylsulfamoyl)-4-(2-hydroxypropylamino)phenyl]thiazol-2-yl]phenyl]carbamate]",> 5.30
2,COC(=O)[C@H](CO)NS(=O)(=O)c1cc(NC(C)=O)ccc1-c1cnc(-c2ccc(NC(=S)NC(C)C)cc2)s1 [Compound D15],< 5.00
3,CNCCCNS(=O)(=O)c1cc(NC(C)=O)ccc1-c1cnc(-c2ccc(NC(=S)NC(C)C)cc2)s1 [Compound D23],< 5.00
4,Cn1ccnc1Nc1ccc(-c2cnc(-c3ccc(N)cc3)s2)c(S(=O)(=O)NC(C)(C)C)c1 [Compound E16],< 5.00
5,CC(=O)Nc1ccc(-c2cnc(-c3cccc(NC(=O)OC(C)C)c3)s2)c(S(=O)(=O)NC(C)(C)C)c1 [Compound J14],> 5.00
6,CC(C)OC(=O)Nc1ccc(-c2ncc(-c3ccc(NC(=O)OCCc4ccccc4)cc3S(=O)(=O)NC(C)(C)C)s2)cc1 [Compound B8],> 6.00
7,CC(C)NC(=S)Nc1ccc(-c2ncc(-c3ccc(NC(=O)c4ccccc4)cc3S(=O)(=O)NC(C)(C)C)s2)cc1 [Compound L6],> 5.30
8,CC(=O)Nc1ccc(-c2cnc(-c3ccc(NC(=S)NC(C)C)cc3)s2)c(S(=O)(=O)NCCCN(C)C)c1 [Compound D25],> 6.00
9,CC(=O)Nc1ccc(-c2ncc(-c3ccc(N)cc3S(=O)(=O)NC(C)(C)C)s2)cc1 [Compound E4],< 5.00
10,CC(C)OC(=O)Nc1ccc(-c2ncc(-c3ccc(NC(=S)NCc4ccccc4)cc3S(=O)(=O)NC(C)(C)C)s2)cc1 [Compound L8],> 6.00
11,CC(C)OC(=O)Nc1ccc(-c2ncc(-c3ccc(NS(=O)(=O)c4ccccc4)cc3S(=O)(=O)NC(C)(C)C)s2)cc1 [Compound E1],< 5.00
12,CC(C)OC(=O)Nc1ccc(-c2ncc(-c3ccc(NS(=O)(=O)Cc4ccccc4)cc3S(=O)(=O)NC(C)(C)C)s2)cc1 [Compound E2],< 5.00
13,COC(=O)Nc1ccc(-c2cnc(-c3ccc(NC(=S)NC(C)C)cc3)s2)c(S(=O)(=O)NC(C)(C)C)c1 [Compound L7],< 5.00
14,CC(=O)Nc1ccc(-c2cnc(-c3ccc(N)cc3S(=O)(=O)NC(C)(C)C)s2)c(S(=O)(=O)NC(C)(C)C)c1 [Compound E8],< 5.00
15,CC(=O)Nc1ccc(-c2cnc(-c3ccc(NC(=S)NC(C)C)cc3)s2)c(S(=O)(=O)N2CCCCC2)c1 [Compound D14],< 5.00
16,CC(=O)Nc1ccc(-c2cnc(-c3ccc(NC(=S)NC(C)C)cc3)s2)c(S(=O)(=O)NCCCN)c1 [Compound D24],< 5.00
17,COC(=O)[C@H](C)NS(=O)(=O)c1cc(NC(C)=O)ccc1-c1cnc(-c2ccc(NC(=S)NC(C)C)cc2)s1 [Compound D21],< 5.00
18,CC(=O)Nc1ccc(-c2cnc(-c3ccc(NC(=S)NC(C)C)cc3)s2)c(S(=O)(=O)N2CCCC2)c1 [Compound D13],< 5.00
